Values after ≈ are worked out from the molar mass of the structure shown.
Columns and labels:
Type in all cases: functional
Pseudomonas aeruginosa [1] = experiment: Antimicrobial activity against wild type Pseudomonas aeruginosa ATCC 27853 expressing beta-lactamase AmpC assessed as inhibition of growth by broth dilution method
Klebsiella pneumoniae [2] = experiment: Antimicrobial activity against Klebsiella pneumoniae OC 4238 overexpressing beta-lactamase SHV-1 assessed as inhibition of growth by broth dilution method
Pseudomonas aeruginosa [3] = experiment: Antimicrobial activity against Pseudomonas aeruginosa OC 7052 expressing beta-lactamase VIM-2 and containing Carbapenemase assessed as inhibition of growth by broth dilution method
Klebsiella pneumoniae [4] = experiment: Antimicrobial activity against Klebsiella pneumoniae OC 5367 expressing beta-lactamase KPC-2 and containing Carbapenemase assessed as inhibition of growth by broth dilution method
Escherichia coli [5] = experiment: Antimicrobial activity against Escherichia coli OC 11732 expressing extended-spectrum beta-lactamase CTX-M-15 assessed as inhibition of growth by broth dilution method
Klebsiella pneumoniae [6] = experiment: Antimicrobial activity against Klebsiella pneumoniae OC 4094 expressing extended-spectrum Beta-lactamase TEM-26 assessed as inhibition of growth by broth dilution method
Acinetobacter baumannii [7] = experiment: Antimicrobial activity against wild type Acinetobacter baumannii OC 16708 deficient in beta-lactamase assessed as inhibition of growth by broth dilution method
Klebsiella pneumoniae [8] = experiment: Antimicrobial activity against wild type Klebsiella pneumoniae OC 15263 expressing beta-lactamase SHV-1 assessed as inhibition of growth by broth dilution method
Pseudomonas aeruginosa [9] = experiment: Antimicrobial activity against Pseudomonas aeruginosa OC 4352 overexpressing beta-lactamase AmpC assessed as inhibition of growth by broth dilution method
Enterobacter cloacae = experiment: Antimicrobial activity against Enterobacter cloacae OC 4080 overexpressing beta-lactamase AmpC assessed as inhibition of growth by broth dilution method
Pseudomonas aeruginosa [10] = experiment: Antimicrobial activity against Pseudomonas aeruginosa OC 4083 expressing beta-lactamase OXA-10 and containing Oxacillinase assessed as inhibition of growth by broth dilution method
Serratia marcescens [11] = experiment: Antimicrobial activity against wild type Serratia marcescens OC 7554 expressing beta-lactamase SME-3 and containing Carbapenemase assessed as inhibition of growth by broth dilution method
Escherichia coli [12] = experiment: Antimicrobial activity against wild type Escherichia coli ATCC 25922 deficient in beta-lactamase assessed as inhibition of growth by broth dilution method
Escherichia coli [13] = experiment: Antimicrobial activity against Escherichia coli DH5-alpha expressing beta-lactamase TEM-1 assessed as inhibition of growth by broth dilution method
Serratia marcescens [14] = experiment: Antimicrobial activity against wild type Serratia marcescens OC 7555 deficient in beta-lactamase assessed as inhibition of growth by broth dilution method
Escherichia coli [15] = experiment: Antimicrobial activity against Escherichia coli OC 6697 expressing beta-lactamase CMY-2 and containing plasmid AmpC assessed as inhibition of growth by broth dilution method
Acinetobacter baumannii [16] = experiment: Antimicrobial activity against Acinetobacter baumannii OC 11738 expressing beta-lactamase OXA-23 and containing Carbapenemase assessed as inhibition of growth by broth dilution method
Klebsiella oxytoca = experiment: Antimicrobial activity against wild type Klebsiella oxytoca OC 4076 expressing Beta-lactamase K1 assessed as inhibition of growth by broth dilution method
Pseudomonas aeruginosa [17] = experiment: Antimicrobial activity against Pseudomonas aeruginosa OC 13996 expressing beta-lactamase IMP-1 and containing Carbapenemase assessed as inhibition of growth by broth dilution method
Pseudomonas aeruginosa [18] = experiment: Antimicrobial activity against Pseudomonas aeruginosa OC 12115 expressing beta-lactamase SPM-1 and containing Carbapenemase assessed as inhibition of growth by broth dilution method

Row | SMILES | MIC (Pseudomonas aeruginosa [1]) [µg/mL] | MIC (Klebsiella pneumoniae [2]) [µg/mL] | MIC (Pseudomonas aeruginosa [3]) [µg/mL] | MIC (Klebsiella pneumoniae [4]) [µg/mL] | MIC (Escherichia coli [5]) [µg/mL] | MIC (Klebsiella pneumoniae [6]) [µg/mL] | MIC (Acinetobacter baumannii [7]) [µg/mL] | MIC (Klebsiella pneumoniae [8]) [µg/mL] | MIC (Pseudomonas aeruginosa [9]) [µg/mL] | MIC (Enterobacter cloacae) [µg/mL] | MIC (Pseudomonas aeruginosa [10]) [µg/mL] | MIC (Serratia marcescens [11]) [µg/mL] | MIC (Escherichia coli [12]) [µg/mL] | MIC (Escherichia coli [13]) [µg/mL] | MIC (Serratia marcescens [14]) [µg/mL] | MIC (Escherichia coli [15]) [µg/mL] | MIC (Acinetobacter baumannii [16]) [µg/mL] | MIC (Klebsiella oxytoca) [µg/mL] | MIC (Pseudomonas aeruginosa [17]) [µg/mL] | MIC (Pseudomonas aeruginosa [18]) [µg/mL]
1 | CC(C)(O/N=C(\C(=O)N[C@@H]1C(=O)N2C(C(=O)[O-])=C(C[n+]3ccccc3)CS[C@H]12)c1csc(N)n1)C(=O)O [CEFTAZIDIME] | 2 (≈ 3.66 µM) | 2 (≈ 3.66 µM) | 64 (≈ 117 µM) | 32 (≈ 58.5 µM) | 32 (≈ 58.5 µM) | > 256 | 4 (≈ 7.32 µM) | 0.12 (≈ 0.22 µM) | 32 (≈ 58.5 µM) | 32 (≈ 58.5 µM) | > 4 | 0.5 (≈ 0.915 µM) | 0.25 (≈ 0.457 µM) | 0.5 (≈ 0.915 µM) | 0.5 (≈ 0.915 µM) | > 128 | > 256 | 1 (≈ 1.83 µM) | > 256 | > 256
2 | C[C@@H](O)[C@H]1C(=O)N2C(C(=O)O)=C(S[C@@H]3CN[C@H](CNS(N)(=O)=O)C3)[C@H](C)[C@H]12 [DORIPENEM] | 0.5 (≈ 1.19 µM) | 0.06 (≈ 0.143 µM) | 32 (≈ 76.1 µM) | 8 (≈ 19 µM) | 0.06 (≈ 0.143 µM) | 0.12 (≈ 0.285 µM) | 0.25 (≈ 0.595 µM) | 0.06 (≈ 0.143 µM) | 0.5 (≈ 1.19 µM) | 0.25 (≈ 0.595 µM) | 2 (≈ 4.76 µM) | 128 (≈ 304 µM) | 0.03 (≈ 0.0713 µM) | 0.06 (≈ 0.143 µM) | 0.06 (≈ 0.143 µM) | 0.06 (≈ 0.143 µM) | 32 (≈ 76.1 µM) | 0.06 (≈ 0.143 µM) | > 256 | > 256
3 | C[C@@H](O)[C@H]1C(=O)N2C(C(=O)O)=C(SCCNC=N)C[C@H]12 [IMIPENEM ANHYDROUS] | 2 (≈ 6.68 µM) | 0.25 (≈ 0.835 µM) | 64 (≈ 214 µM) | 16 (≈ 53.4 µM) | 0.25 (≈ 0.835 µM) | 0.5 (≈ 1.67 µM) | 0.25 (≈ 0.835 µM) | 0.5 (≈ 1.67 µM) | 2 (≈ 6.68 µM) | 1 (≈ 3.34 µM) | 1 (≈ 3.34 µM) | > 256 | – | – | 0.25 (≈ 0.835 µM) | 0.5 (≈ 1.67 µM) | 64 (≈ 214 µM) | 0.25 (≈ 0.835 µM) | > 256 | > 256
4 | C[C@@H](O)[C@H]1C(=O)N2C(C(=O)O)=C(S[C@@H]3CN[C@H](C(=O)N(C)C)C3)[C@H](C)[C@H]12 [MEROPENEM] | 0.5 (≈ 1.3 µM) | 0.03 (≈ 0.0782 µM) | 32 (≈ 83.4 µM) | – | 0.03 (≈ 0.0782 µM) | 0.06 (≈ 0.156 µM) | 0.25 (≈ 0.652 µM) | 0.03 (≈ 0.0782 µM) | 0.5 (≈ 1.3 µM) | 0.25 (≈ 0.652 µM) | 2 (≈ 5.22 µM) | 128 (≈ 334 µM) | 0.03 (≈ 0.0782 µM) | 0.03 (≈ 0.0782 µM) | 0.03 (≈ 0.0782 µM) | 0.06 (≈ 0.156 µM) | 64 (≈ 167 µM) | 0.06 (≈ 0.156 µM) | > 256 | > 256

— ChEMBL document CHEMBL1212772 (2010)
